The text below walks through data of patent publication US5011847A, “2,5-diaryl tetrahydrofurans and analogs thereof as PAF antagonists” (Merck & Co., Inc., priority 1989, dated 1991).

The assay deals with T1, PAF specific receptor binding site, human platelet membranes (Homo sapiens, UniProt P25105).
T1 construct: from tissue; host or cells: human platelets (plasma membrane suspension)
The assay is described as follows: Inhibition of [3H] N-methylcarbamoyl-PAF binding to human platelet membranes. Conditions: trans configuration; for inhibition at 0.003 µM: 3 nM; for inhibition at 0.03 µM: 30 nM. The procedure: The compounds of formula (I) inhibit PAF-induced functions in both the cellular and tissue levels by changing the PAF binding to its specific receptor site. The ability of a compound of formula (I) to inhibit the PAF binding to its specific receptor binding site on rabbit or human platelet or PMN plasma membranes was measured by a recently developed assay.
The inhibition of ^3 [H]-PAF or ^3 [H]-N-methylcarbamoyl-PAF binding to the human or rabbit platelet or PMN plasma membrane by a PAF antagonist of formula (I) was determined by a method employing isotopic labeling and filtration techniques. Generally, a series of Tris-buffered solutions of the selected antagonist at predetermined concentrations were prepared. Each of these solutions contains 1 pmole of ^3 H-PAF, a known amount of the test antagonist, and a sufficient amount of the pH 7.5 Tris-buffer solution (10 mM Tris, 0.25% bovine serum albumin, and 150 mM NaCl per ml water) to make the final volume of 1 ml. After adding into a set of test tubes each with 100 μg of the platelet plasma membrane suspension (S. B. Hwang, et al., Biochemistry. Vol. 22, pp. 4756-4763, 1983) and one of the Tris-buffer solutions described above, the resulting mixture in each test tube was incubated at 0° C. for about one hour or until the reaction was complete. Two control samples, one of which (C1) contains all the ingredients described above except the antagonist and the other (C2) contains C 1 plus a 1000-fold excess of unlabeled PAF, were also prepared and incubated simultaneously with the test samples. After the incubation was completed, the contents of each test tube were filtered under vacuo through a Whatman GF/C fiberglass filter and the residue washed rapidly several times with a total of 20 ml cold (0°-5° C.) Tris buffer solution. Each washed residue was then suspended in 10 ml scintillation solution (Aquasol 2, New England Nuclear, Conn.) and the radioactivity was counted in a Packard Tri-Carb 460CD Liquid Scintillation System. Defining the counts from a test sample as "Total binding with antagonist"; the counts from the control sample C1, as "Total binding C1 "; and the counts from the control sample C2 as "non-specific binding C2 ", the percent inhibition of each test antagonist can be determined by the following equations: [formula]
Specific binding=(Total binding C1)-(non-specific binding C2)
*Inibition of the binding of [^3 H] Nmethylcarbamoyl-PAF to human

T1 sequence (P25105 whole entry): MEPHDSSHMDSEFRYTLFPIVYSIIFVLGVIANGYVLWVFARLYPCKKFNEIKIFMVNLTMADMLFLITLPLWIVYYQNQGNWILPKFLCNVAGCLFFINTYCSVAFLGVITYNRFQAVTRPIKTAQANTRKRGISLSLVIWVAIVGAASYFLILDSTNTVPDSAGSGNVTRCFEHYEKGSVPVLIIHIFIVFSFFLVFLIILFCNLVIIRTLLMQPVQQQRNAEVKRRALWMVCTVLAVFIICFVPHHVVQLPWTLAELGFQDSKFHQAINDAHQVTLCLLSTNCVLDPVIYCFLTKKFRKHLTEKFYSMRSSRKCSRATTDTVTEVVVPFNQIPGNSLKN

One may read the inhibition as the drop in the measured response relative to a control, in per cent. Read a high inhibition as a response far below the control. Consider `CCCOc1c(OCC(C)=O)cc([C@@H]2CC[C@@H](c3cnc(OC)c(OC)c3)O2)cc1S(=O)(=O)CCCO` (relative stereo), for which 0.003 µM produced 30% inhibition and the inhibition at 0.03 µM was 66%.

In turn, `CCCOc1c(OCCCO)cc([C@@H]2CC[C@@H](c3cnc(OC)c(OC)c3)O2)cc1S(=O)(=O)CC(C)=O` (relative stereo) [trans-2-[3-(2-oxopropyl)sulfonyl-4-n-propoxy-5-(3-hydroxypropoxy)phenyl]-5[5-(2,3-dimethoxy)pyridyl]tetrahydrofuran] displayed an inhibition at 0.003 µM of 43% and an inhibition at 0.03 µM of 87%.

The compound `CCCOc1c(OCC(C)=O)cc([C@H]2CC[C@H](c3cccnc3)O2)cc1S(=O)(=O)CCC` (relative stereo) [trans-2-[3-n-propylsulfonyl-4-n-propoxy-5-(2-oxopropoxy)phenyl]-5-(3-pyridyl) tetrahydrofuran] displayed an inhibition at 0.003 µM of 12% and an inhibition at 0.03 µM of 66%.

For the compound `CCCOc1c(OCC(C)=O)cc([C@@H]2CC[C@@H](c3cnc(OC)c(OC)c3)O2)cc1S(=O)(=O)CCC` (relative stereo) [trans-2-[3-n-propylsulfonyl-4-n-propoxy-5-(2-oxopropoxy)phenyl]-5-[5-(2,3-dimethoxy)pyridyl]tetrahydrofuran], at 0.003 µM the inhibition was 63% and 0.03 µM produced 93% inhibition.

In turn, `CCCOc1c(OCC(C)=O)cc([C@@H]2CC[C@@H](c3cnc(OC)c(OC)n3)O2)cc1S(=O)(=O)CCC` (relative stereo) [trans-2-[3-n-propylsulfonyl-4-n-propoxy-5-(2-oxopropoxy)phenyl]-5-[6-(2,3-dimethoxy)pyrazyl]tetrahydrofuran] came in with an inhibition at 0.003 µM of 58% and an inhibition at 0.03 µM of 100%.

Take `CCCOc1c(OCCO)cc([C@@H]2CC[C@@H](c3cnc(OC)c(OC)c3)O2)cc1S(=O)(=O)CC(C)O` (stereo partly drawn) [trans-2-[3-(2-Hydroxypropyl)sulfonyl-4-n-propoxy 5-(2-hydroxyethoxy)phenyl]-5-[5-(2,3-dimethoxy)pyridyl]tetrahydrofuran]: 0.003 µM produced 13% inhibition and the inhibition at 0.03 µM stood at 58%.

Turning to `CCCOc1c(OCC(C)=O)cc([C@@H]2CC[C@@H](c3cnc(OC)c(OC)c3)O2)cc1S(=O)(=O)CC(C)O` (stereo partly drawn) [trans-2-[3-(2-Hydroxypropyl)sulfonyl-4-n-propoxy-5-(2-oxopropoxy)phenyl]-5-[5-(2,3-dimethoxy)pyridyl]tetrahydrofuran], the inhibition at 0.003 µM stood at 31% and at 0.03 µM the inhibition was 81%.

In the case of `CCCOc1c(OCC(C)=O)cc([C@@H]2CC[C@@H](c3cnc(OC)c(OC)n3)O2)cc1S(=O)(=O)CC(C)O` (stereo partly drawn) [trans-2-[3-(2-Hydroxypropyl)sulfonyl-4-n-propoxy-5-(2-oxopropoxy)phenyl]-5-[6-(2.3 dimethoxy)pyrazyl]tetrahydrofuran], the inhibition at 0.003 µM was 42% and 0.03 µM produced 81% inhibition.

On to `CCCOc1c(OCCCO)cc([C@@H]2CC[C@@H](c3cnc(OC)c(OC)c3)O2)cc1S(=O)(=O)CC(C)O` (stereo partly drawn) [trans-2-[3-(2-Hydroxypropyl)sulfonyl-4-n-propoxy-5-(3-hydroxypropoxy)phenyl]-5[5-(2,3-dimethoxy)pyridyl]tetrahydrofuran], for which the inhibition at 0.003 µM was determined as 16% and at 0.03 µM the inhibition was 75%.

With `CCCOc1c(OCC(C)O)cc([C@@H]2CC[C@@H](c3cnc(OC)c(OC)c3)O2)cc1S(=O)(=O)CCC` (stereo partly drawn) [trans-2-[3-n-propylsulfonyl-4-n-propoxy-5-(2-hydroxypropoxy)phenyl]-5-[5-(2,3-dimethoxy)pyridyl]tetrahydrofuran], at 0.003 µM the inhibition was 54% and the inhibition at 0.03 µM amounted to 100%.

Regarding `CCCOc1c(OCC(C)O)cc([C@@H]2CC[C@@H](c3cnc(OC)c(OC)n3)O2)cc1S(=O)(=O)CCC` (stereo partly drawn) [trans-2-[3-n-propylsulfonyl-4-n-propoxy-5-(2-hydroxypropoxy)phenyl]-5-[6-(2,3-dimethoxy)pyrazyl]tetrahydrofuran], the inhibition at 0.003 µM is 60% and the inhibition at 0.03 µM was 100%.
